The source of these data is patent US11566049B2, “Cyclic peptides and uses thereof” (LATERAL IP PTY LTD, priority 2018, dated 2023).

Where “and” joins values, the source holds several entries; their conditions need not be identical. Equal entries are not always repeated. Entries after “also recorded” stand apart in the source; their conditions may differ. Positions of bridges follow the written chain, without caps; N, C: chain ends. No end group written: not given here.

Assay [1] concerns dorsal horn neurons. Put plainly: whole-cell recording of dorsal horn neurons in spinal cord slices from Chung models (Example 3). It counts as cell-based, rat. To be noted: 5 μM; for Input Resistance, mean in presence of peptide / Membrane Potential, mean in presence of peptide: all cells; for Normalised Input Resistance / Normalised Input Resistance ΔIR: control = 100; for effect on membrane potential and activity of dorsal horn neurons: ipsilateral to injury; for Normalised Membrane Potential / Normalised Membrane Potential ΔVm: rest = 100; for ΔIR, change in neuronal input resistance: vs control, positive in table = reduction; for ΔVm, change in membrane potential: vs rest, positive in table = hyperpolarisation. On the procedure: Spinal nerve ligation (Chung model; as described in Examples 1 and 2, above) was performed by a single tight ligation on the L5 spinal nerve. […] This animal model is often used as the “gold standard” for neuropathic pain.
Adult male Sprague-Dawley rats, weighing 220-250 g (aged 7 weeks and older) at the time of surgery, were used in this study. They were housed in groups of 4, in an air-conditioned room, on a 12-hour light/dark cycle with food and water available ad libitum. All experiments were performed in accordance with the U. K. Animals (Scientific Procedures) Act (1986).
The animals were housed in groups of 4 in an air-conditioned room on a 12-hour light/dark cycle. Food and water were available ad libitum. Animals were allowed to acclimatise to the environment for experiments for three days by leaving them on a raised metal mesh for at least 40 min. The baseline paw withdrawal threshold (PWT) was examined using a series of graduated von Frey hairs (see below) for 3 consecutive days before surgery and re-assessed on the 6th to 8th day after surgery and on the 12th to 14th day-after surgery before drag dosing.
(§1) Each rat was anaesthetized with 5% isoflurane mixed with oxygen (2 L per min) followed by an intramuscular (i.m.) injection of ketamine 90 mg/kg plus xylazine 10 mg/kg. The back was shaved and sterilized with povidone-iodine. The animal was placed in a prone position and a para-medial incision was made on the skin covering the L4-6 level. The L5 spinal nerve was carefully isolated and tightly ligated with 6/0 silk suture. The wound was then closed in layers after a complete haemostasis. A single dose of antibiotics (Amoxipen, 15 mg/rat, i.p.) was routinely given for prevention of infection after surgery. The animals were placed in a temperature-controlled recovery chamber until fully awake before being returned to their home cages.
The peptides of SEQ ID NO:27 (also referred to herein as LAT9993 Loop) and SEQ ID NO:28 (also referred to herein as LAT9993S or LAT9993 LoopS), were solubilised in distilled water and made up as concentrated stocks and stored frozen until the day of experiment when they were diluted to the required test concentrations in artificial cerebrospinal fluid (aCSF). The aCSF comprised (mM): NaCl, 127; KCl, 1.9; KH2PO4, 1.2; CaCl2, 2.4; MgCl2, 1.3; NaHCO3, 26; D-glucose, 10; equilibrated with 95% O2-5% CO2.
(§2) Ten to fourteen days after surgery, animals were placed in individual Perspex boxes on a raised metal mesh for at least 40 minutes prior to PWT testing. Starting with the filament of lowest force (1 g), each filament was applied perpendicularly to the centre of the ventral surface of the paw until slightly bent for 6 seconds. If the animal withdrew or lifted its paw upon stimulation, a von Frey hair with force immediately lower than that tested was subsequently used. If no response was observed, then a hair with force immediately higher was tested. The lowest amount of force required to induce reliable responses (positive in 2 out of 3 trials) was recorded as the value of PWT. Only animals showing significant mechanical allodynia (PWT≤3.5 g) were selected for subsequent electrophysiological experiments (see FIG. 5).
(§3) Once validation of a neuropathic state had been confirmed, animals were terminally anesthetized using isoflurane (Norvartis Animal Health UK Ltd.), cervically dislocated and decapitated. A laminectomy was performed and the spinal cord, with spinal roots and DRG attached, removed and cut into 250-450 μm thick slices using a Leica VT1000S vibrating microtome (Leica Microsystems UK, Milton Keynes, United Kingdom). Slices were maintained in artificial cerebrospinal fluid (aCSF) at room temperature for 1 hr after slicing before recording. For recording, individual slices were held between two grids in a custom-built chamber continuously perfused with aCSF at a rate of 4-10 ml.min^−1, illuminated from below, and viewed under a dissection microscope. […]

Assay [2] relates to dorsal horn neurons. Description: whole-cell recording of dorsal horn neurons in spinal cord slices from Chung models (Example 4). Type of assay: cell-based, rat. To be noted: 1 μM; for Input Resistance, mean in presence of peptide / Membrane Potential, mean in presence of peptide: all cells; for Normalised Input Resistance / Normalised Input Resistance ΔIR: control = 100; for effect on membrane potential and activity of dorsal horn neurons: ipsilateral to injury; for Normalised Membrane Potential / Normalised Membrane Potential ΔVm: rest = 100; for ΔIR, change in neuronal input resistance: vs control, in table positive = reduction, negative = increase; for ΔVm, change in membrane potential: vs rest, in table positive = hyperpolarisation, negative = depolarisation. On the procedure:
Adult male Sprague-Dawley rats, weighing 220-250 g (aged/weeks and older) at the time of surgery, were used in this study. They were housed in groups of 4, in an air-conditioned room, on a 12-hour light/dark cycle with food and water available ad libitum. All experiments were performed in accordance with the U.K. Animals (Scientific Procedures) Act (1986).
The animals were housed in groups of 4 in an air-conditioned room on a 12-hour light/dark cycle. Food and water were available ad libitum. They were allowed to acclimatise to the environment for experiments for three days by leaving them on a raised metal mesh for at least 40 min. The baseline paw withdrawal threshold (PWT) was examined using a series of graduated von Frey hairs (see below) for 3 consecutive days before surgery and re-assessed on the 6th to 8th day after surgery and on the 12th to 14th day after surgery before drug dosing.
as §1
LAT9993 LoopS (SEQ ID NO:28), SEQ11+LAT9993 Loop (SEQ ID NO:32; […]), SEQ25+LAT9993 Loop (SEQ ID NO:33; […]), LAT9993 SLoop A4 (SEQ ID NO:30), LAT9993 SLoop A7 (SEQ ID NO:31), LAT9993 SLoop A9 (SEQ ID NO:34; SCRSRPVEASC) and LAT9993 SLoop A10 (SEQ ID NO:35; SCRSRPVESAC), were solubilised in distilled water and made up as concentrated stocks and stored frozen until the day of experiment when they were diluted to the required test concentrations in artificial cerebrospinal fluid (aCSF), as described in Example 3, above.
as §2
as §3, with “microscope. The aCSF was of the following composition (mM): NaCl, 127; KCl, 1.9; KH2PO4, 1.2; CaCl2, 2.4; MgCl2, 1.3; NaHCO3, 26; D-glucose, 10; equilibrated with 95% O2-5% CO2.” for “microscope.”

As for “CRSRPVESSC (disulfide 1-10 (inferred); listed as Homo sapiens) [LAT9993 Loop, cyclic peptide of formula (I), disulphide bond between the two cysteine residues]”, in the assay on dorsal horn neurons [1], the “dorsal root afferent-mediated EPSPs” value is “suppression; also recorded: suppressed dorsal root afferent mediated excitatory synaptic transmission”; the “evoked inhibitory post-synaptic potentials” value is “little effect”; the “Input Resistance, mean in presence of peptide” value (“Input Resistance, mean” below) is 566.3±82.0 MΩ and 566.3 MΩ; the “Membrane Potential, mean in presence of peptide” value (“Membrane Potential, mean” below) was −51.9±3.9 mV and −51.9 mV. In the assay on dorsal horn neurons [1], the “Normalised Input Resistance” value came out at 92.4; the “Normalised Input Resistance ΔIR” value worked out at 7.6; the “effect on membrane potential and activity of dorsal horn neurons” value (from here on “effect”) is “marked membrane hyperpolarisation and inhibition of activity in 4 neurons; also recorded: little effect on a further 2 dorsal horn neurons”; the “Normalised Membrane Potential” value turned out to be 107.2. In the assay on dorsal horn neurons [1], the “Normalised Membrane Potential ΔVm” value is −7.2; the “ΔIR, change in neuronal input resistance” value was 51.6±75.3 MΩ and 51.6 MΩ; the “ΔVm, change in membrane potential” value was 3.5±1.1 mV and 3.5 mV.

In the case of “CRSRPVESSCS (disulfide 1-10 (inferred); listed as Homo sapiens) [LAT9993 LoopS, cyclic peptide of formula (I), disulphide bond between the two cysteine residues]”, in the assay with dorsal horn neurons [1], the “dorsal root afferent-mediated EPSPs” value is “suppression of dorsal root afferent-mediated EPSPs, in one neurone selectively”; the “Input Resistance, mean” value is 788±191.9 MΩ and 788.0 MΩ; the “Membrane Potential, mean” value is −50.6±1.8 mV and −50.6 mV; the “Normalised Input Resistance” value is listed as 95.6. In the assay on dorsal horn neurons [1], the “Normalised Input Resistance ΔIR” value amounted to 4.4; the “effect” value was “membrane hyperpolarisation and inhibition of activity in 3 neurons; also recorded: little effect on a further 2 dorsal horn neurons; also recorded: principally induced inhibition of dorsal horn neurons or was without significant effect”; the “Normalised Membrane Potential” value is on record as 109.2; the “Normalised Membrane Potential ΔVm” value is on record as −9.2. Moreover, in the assay on dorsal horn neurons [1], the “ΔIR, change in neuronal input resistance” value is 22.1±24.2 MΩ and 22.1 MΩ; the “ΔVm, change in membrane potential” value is 3.8±2 mV and 3.8 mV. Also, in the assay on dorsal horn neurons [1] (listed as LAT999 LoopS), the “dorsal root afferent-mediated EPSPs” value is reported as “suppressed dorsal root-evoked excitatory posts-synaptic potentials (EPSPs) in two neurons”. Moreover, the “dorsal root afferent-mediated EPSPs” value in the assay with dorsal horn neurons [1] (listed as LAT9993S) is recorded as “suppression of EPSPs; also recorded: selectively suppressed”. In addition, in the assay with dorsal horn neurons [1] (single cells), the “reversal potential of induced response (VI plots intersect)” value was “around −55 mV”. Also, in the assay on dorsal horn neurons [2], the “dorsal root afferent-mediated EPSPs / synaptic inputs (words)” value is “either slightly suppressed dorsal root-evoked excitatory post-synaptic potentials (EPSPs) or had little effect; also recorded: little effect”; the “Input Resistance, mean” value was 502.6±104.1 MΩ and 502.6 MΩ; the “Membrane Potential, mean” value is −44.7±4.3 mV and −44.7 mV; the “Normalised Input Resistance” value is listed as 92.8. In the assay on dorsal horn neurons [2], the “Normalised Input Resistance ΔIR” value was determined as 7.2; the “effect” value is “membrane hyperpolarisation and inhibition of activity in 1 neurone; also recorded: membrane depolarisation in the other two neurons; also recorded: small excitation of dorsal horn”; the “Normalised Membrane Potential” value is on record as 91.5; the “Normalised Membrane Potential ΔVm” value was 8.5. In addition, in the assay with dorsal horn neurons [2], the “ΔIR, change in neuronal input resistance” value is 28.7±34.9 MΩ and 28.7 MΩ. In the assay on dorsal horn neurons [2] (listed as LAT9993 Loop S), the “dorsal root afferent-mediated EPSPs / synaptic inputs (words)” value is reported as “little effect”. For the same sequence, in the assay on dorsal horn neurons [2] (single cells), the “reversal potential of induced response (VI plots intersect)” value is listed as “around −85 mV”.

As to “SCRARPVESSC (listed as Homo sapiens) [LAT9993 SLoop A4, peptide variant of formula (I)]”, in the assay on dorsal horn neurons [2], the “dorsal root afferent-mediated EPSPs / synaptic inputs (words)” value was “suppressed”; the “Input Resistance, mean” value amounted to 294.6±40.7 MΩ; the “Membrane Potential, mean” value is listed as −53.3±5.1 mV; the “Normalised Input Resistance” value is given as 78.3. In the assay on dorsal horn neurons [2], the “Normalised Input Resistance ΔIR” value is on record as 21.7; the “effect” value is “membrane hyperpolarisation and inhibition of activity in 1 neurone; also recorded: membrane depolarisation in 3 neurons”; the “Normalised Membrane Potential” value is 107.7; the “Normalised Membrane Potential ΔVm” value was −7.7. Moreover, in the assay with dorsal horn neurons [2], the “ΔIR, change in neuronal input resistance” value stood at 103.1±55.5 MΩ and the “ΔVm, change in membrane potential” value is recorded as 4.2±3.1 mV. For the same sequence, in the assay on dorsal horn neurons [2] (listed as LAT9993 Sloop A4), the “Input Resistance, mean” value is listed as 294.6 MΩ; the “Membrane Potential, mean” value is listed as −53.3 mV; the “ΔIR, change in neuronal input resistance” value came to 103.1 MΩ; the “ΔVm, change in membrane potential” value stood at 4.2 mV. Moreover, in the assay with dorsal horn neurons [2] (listed as LAT9993 Loop A4), the “effect” value was “membrane hyperpolarisation and suppression of activity”; the “dorsal root afferent-mediated EPSPs / synaptic inputs (words)” value is on record as “suppressed dorsal root-evoked excitatory synaptic transmission; also recorded: partly suppressed”.
